Reference: ChEMBL document CHEMBL1147289, “A new bioactive derivative of avarol from the marine sponge Dysidea avara” (J Nat Prod, 1989)

How the values were obtained:
[1] = test system: Agrobacterium tumefaciens; experiment: Antitumor activity against Agrobacterium tumefaciens-induced crown gall tumors in potato tubers by potato disk assay; assay type: functional
Artemia = experiment: Toxicity in brine shrimp; assay type: organism-based; settings: in vivo

Row | SMILES | inhibition (INH) [1] [%] | LC50 (Artemia) [ppm]
1 | CC(=O)O.CC1=CCCC2[C@](C)(Cc3cc(O)ccc3O)[C@@H](C)CC[C@]12C (stereo partly specified) [AVAROL MONOACETATE] | 59 | 0.09
2 | CC1=CCC[C@H]2[C@](C)(Cc3cc(O)ccc3O)[C@@H](C)CC[C@]12C [AVAROL] | 64 | 0.18
3 | CC1=CCC[C@H]2[C@](C)(CC3=CC(=O)C=CC3=O)[C@@H](C)CC[C@]12C [AVARONE] | 63 | 0.14
